# Data taken from US20060229358A1, “Pharmaceutical composition containing flavonoids” (Taipei Medical University, priority 2005, published 2006).
# Like-named read-outs stand apart in the source and are kept apart here.
# How the values were obtained:
# [1] = test system: PDE4H (HARBS); conditions: cited from earlier work
# [2] = test system: PDE4L (LARBS); conditions: reference [23]; read-out: EC50 for binding PDE4L; cited from earlier work
# [3] = molecular target: T1, high affinity rolipram binding sites (HARBS, PDE4H); assay: Binding to particulate HARBS of whole brain, displacement of [3H]-rolipram (Assay II); set-up: species or system guinea pig; conditions: 2 nM [3H]-rolipram, guinea pig whole brain particulates, FIG. 2; read-out: IC50 for displacement of [3H]-rolipram from HARBS
# T1 construct: IC50 for displacement of [3H]-rolipram from HARBS; other: 300 μM, guinea pig, preliminary experimental data; other: guinea pig whole brain particulates; over 300 μM not available due
# Protocol: The binding experiments are carried on basis of the methods of Schneider et al. and Zhao et al. with a small modification. Under a protocol approved by the Animal Care and Use Committee of Taipei Medical University, five male guinea pigs (Hartley), weighing 500-600 g, were anesthetized. The whole brains taken therefrom were homogenized with in 10 volumes of cold medium (pH 6.5) containing 20 mM Bis-Tris, 2 mM benzamidine, 2 mM EDTA, 50 mM sodium chloride, 0.1 mM phenylmethanesulfonyl fluoride (PMSF), and 1 mM dithiothreitol. At 4° C., the homogenate was centrifuged at 170 g for 15 min for removing blood vessels and connective tissues, and the supernatant thereof was then re-centrifuged at 40,000 g for 30 min for separating the particulates from the cytosol of cells.
# After incubation, the reaction was stopped by transferring the reaction vessel to a bath of crashed ice. Then the reaction mixture was filtered through a punched glass fiber filter (Whatman GF/B) placed in a mini funnel, which was adopted to a 1.5 ml of Eppendorff's tube for collecting the filtrate in the mini centrifuge at 1000 rpm for 10 seconds. By the same way (centrifugation), it is further washed with 0.3 ml reaction buffer each for three times. The Whatman GF/B filter was mixed with 2 ml of cocktail and counted by the β-scintillation counter (Backman, Fullerton, Calif., USA) for counting the radioactivity thereof.
# [4] = test system: PDE4H (HARBS); assay: Literature binding to brain HARBS (PDE4H); conditions: worked out from the cited EC50 values
# Excerpt: Recently, in United States of American and Europe, the selective inhibitors for the PDE4 are considered as the important materials for treating asthma or chronic obstructive pulmonary disease (COPD). In addition, the clinical trials thereof are considered safe and effective, whereas they have side effects, such as vomiting, gastric hypersecretion, etc.. […] In the brain, there are two binding sites for rolipram, which are high (HARBS) and low affinity rolipram binding sites (LARBS), while in the periphery of bronchi and lung there exist only LARBS. Generally, the anti-inflammatory and the bronchodilatory effects of rolipram are considered as its ability to bind with LARBS [21]. […] Therefore, the pharmaceutical factories in the world are trying to develop drugs with high PDE4H/PDE4L ratio for separating the side effects from the main therapeutic effects, while some progresses are obtained. […] Although the respective PDE4H/PDE4L ratios of roflumilast and cilomilast are much higher than that of rolipram, they are not good enough. […] It seems having a good perspective.
Structure (SMILES),"EC50 ([1]; reference [23], read-out: EC50 for binding PDE4H) [nM]",EC50 [2] [nM],IC50 [3] [nM],PDE4H/PDE4L ratio [4],PDE4H/PDE4L ratio ([1]; references [24-26])
COc1ccc(C2CNC(=O)C2)cc1OC1CCCC1 (centres unmarked) [rolipram],~2,~1000,7.4,0.002,
"O=C(Nc1c(Cl)cncc1Cl)C(=O)c1cn(Cc2ccc(F)cc2)c2ccc(O)cc12 [AWD-12-281, N-(3,5-dichloro-pyrid-4-yl)-[1-(4-fluorobenzyl)-5-hydroxy-indole-3-yl]-gly oxylic acid amide]",,,,,about 11
